For one assay, the target named is T1, AMPKα2β1γ1 (Homo sapiens, UniProt P54619+P54646+Q9Y478).
T1 construct: His; made in house
Briefly: HTRF KinEASE activation assay with bacterially-expressed, phosphorylated purified AMPKα2β1γ1 complex. The format is biochemical. The following applies: varying concentrations, 30 mins incubation, cell-free; FIG. 1. The procedure:
Varying concentrations of compound 1 was incubated with phosphorylated purified AMPK α2β1γ1 for 30 mins. AMPK activity was determined using the HTRF KinEASE assay kit and results are presented as the ratio of 665/620 nm (STK1 phosphorylation).
The AMPKα2β1γ1 complex was expressed in bacteria and purified through the His-α subunit by nickel purification, purified through gel filtration and phosphorylated by incubation with CaMKKβ, and then further purified through a final gel filtration purification step. Phosphorylated purified AMPK was incubated with varying concentrations of ligand for 30 mins along with substrate and reagents from the HTRF-KinEASE Cisbio assay kit (STK S1 Kit). Phosphorylation of the substrate was measured by incubating with donor and acceptor antibodies for 2 h at room temperature as per the manufacturer's protocol (and Coulerie et al., (2016), see below) and phosphorylated peptide detected by performing HTRF.
A general note: TR-FRET usually uses a lanthanide donor and a delayed reading to cut background.

Assay [1] concerns U-2 OS Flp-In T-REx cells (phosphorylation of acetyl-CoA carboxylase, ACC). The experiment in a line: pACC HTRF assay: phosphorylation of the AMPK substrate ACC in U-2 OS Flp-In T-REx cells. The format is cell-based. The following applies: varying concentrations, 30 mins at 37 C, media lacking FBS; FIG. 2. As for the experimental part:
U-2 OS cells were treated with varying concentrations of compound 1 for 30 mins at 37 C. Phosphorylation of ACC was assessed using the HTRF Cisbio (pACC kit).
U-2 OS Flp-In T-REx cells were seeded at 50 K in a 96-well plate and left overnight at 37 C in DMEM GlutaMAX (Thermo Fisher Scientific) supplemented with 10% (vol/vol) FBS and 100 U/ml penicillin G, and 100 μg/ml streptomycin. Cells were treated for 30 mins with varying concentrations of compound 1 in media lacking FBS and then cells were lysed in 50 μl of Cisbio lysis buffer #1 supplemented with blocking solution as per the manufacturer's protocol (Cisbio). Cells were lysed for 30 mins at room temperature before 16 μl of lysate was incubated with 4 μl of the HTRF antibodies (1:40 dilution of the acceptor and donor (p)ACC antibodies, as per the manufacturers protocol). Lysates were incubated overnight with the antibodies before 665 nm/620 nm ratio was determined using a MolecularDevices i3 plate reader (with a HTRF cartridge add-on). The results are plotted as fold activation compared to the respective AMPK complex without any compound.

This note sets out measurements from patent US20230008317A1, “Z-STILBENE AMPK ACTIVATOR COMPOUNDS, COMPOSITIONS, METHODS AND USES THEREOF” (SOCIETE DES PRODUITS NESTLE S.A., priority 2019, published 2023).

SMILES strings stand for the structures.

T1 sequence (P54646 whole entry): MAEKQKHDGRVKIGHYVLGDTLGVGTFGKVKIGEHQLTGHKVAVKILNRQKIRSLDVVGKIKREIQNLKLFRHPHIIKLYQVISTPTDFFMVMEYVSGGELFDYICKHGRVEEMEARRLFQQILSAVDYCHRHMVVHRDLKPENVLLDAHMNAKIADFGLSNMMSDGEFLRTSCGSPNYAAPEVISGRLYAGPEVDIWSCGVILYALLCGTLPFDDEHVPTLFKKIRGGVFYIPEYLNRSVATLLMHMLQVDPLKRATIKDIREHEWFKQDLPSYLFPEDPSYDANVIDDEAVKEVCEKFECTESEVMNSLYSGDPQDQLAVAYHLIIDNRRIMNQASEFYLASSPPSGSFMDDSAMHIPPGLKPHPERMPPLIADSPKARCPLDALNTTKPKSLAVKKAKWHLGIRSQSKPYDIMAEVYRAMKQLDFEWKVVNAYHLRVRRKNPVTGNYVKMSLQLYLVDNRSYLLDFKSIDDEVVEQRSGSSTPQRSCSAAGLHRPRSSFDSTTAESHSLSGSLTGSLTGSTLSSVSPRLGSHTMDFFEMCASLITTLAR
T1 sequence (Q9Y478 whole entry): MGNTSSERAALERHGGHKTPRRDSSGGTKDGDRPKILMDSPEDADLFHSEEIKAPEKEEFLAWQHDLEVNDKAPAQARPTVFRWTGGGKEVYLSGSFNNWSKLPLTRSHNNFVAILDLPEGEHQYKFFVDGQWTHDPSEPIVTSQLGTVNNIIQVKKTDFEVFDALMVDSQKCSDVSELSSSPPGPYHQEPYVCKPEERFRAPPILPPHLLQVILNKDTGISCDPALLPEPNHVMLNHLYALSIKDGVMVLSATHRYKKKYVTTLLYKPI
T1 sequence (P54619 whole entry): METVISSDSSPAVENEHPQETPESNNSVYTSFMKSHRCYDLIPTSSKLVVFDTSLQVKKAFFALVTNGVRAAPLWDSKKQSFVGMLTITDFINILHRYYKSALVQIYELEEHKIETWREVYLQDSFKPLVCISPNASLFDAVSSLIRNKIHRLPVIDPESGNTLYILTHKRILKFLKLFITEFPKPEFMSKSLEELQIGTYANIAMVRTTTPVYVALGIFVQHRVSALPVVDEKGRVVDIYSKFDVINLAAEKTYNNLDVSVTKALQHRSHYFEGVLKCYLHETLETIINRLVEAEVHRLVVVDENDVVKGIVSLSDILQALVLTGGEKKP

On to `COc1cc(O)cc(/C=C\c2cccc(O)c2)c1` [compound 1, (Z)-3,3′-Dihydroxy-5-methoxystilbene], for which the “AMPK activity (STK1 substrate phosphorylation, 665 nm/620 nm ratio)” value on AMPKα2β1γ1 is listed as “allosterically activates AMPKα2β1γ1”. For the same compound, the “Phosphorylation of ACC (fold activation relative to untreated cells)” value in assay [1] is “increased the phosphorylation of the AMPK substrate, ACC, in a dose-dependent manner”.
